In patent US20090054346A1, “ELASTIN PRODUCTION-ENHANCING AGENTS” (Rohto Pharmaceutical Co., Ltd., priority 2006, published 2009):
Peptide text beside a SMILES is read from it.

Test system: Normal human skin-derived fibroblasts (CRL-1836)
Assay: Microscopic observation of fibroblasts after 72 hours of culture (cell count, morphology)
Type: cell-based
Settings: 1000 μg/ml peptide
Experimental: Normal human skin-derived fibroblasts (CRL-1836; ATCC) were cultured in 60-mm dishes. More specifically, the cells were plated in dishes at a density of 2500 cells/cm^2, and cultured until subconfluent at 37° C. under 5% carbon dioxide gas and 95% air for 6 days. 3 ml of Dulbecco's Modified Eagle Medium (DMEM) supplemented with […] fetal bovine serum (FBS) was used in the culture. Then, the culture medium was changed to the same medium without FBS (namely, serum-free medium), and the culture was continued for 1 day. Next, the culture medium was changed to 3 ml of serum-free medium supplemented with 1000 μg/ml of the LEHA peptide prepared in Example 1, and the cells were cultured for 72 hours. Meanwhile, the culture in which the medium was changed to 3 ml of serum-free culture medium without the LEHA peptide was used as a control.
After 72 hours of culture, the cells in the dishes containing the LEHA peptide and the control dishes were observed under a microscope.

## CC(C)C[C@H](N)C(=O)N[C@@H](CCC(=O)O)C(=O)N[C@@H](Cc1c[nH]cn1)C(=O)N[C@@H](C)C(=O)O [LEHA peptide, Leu-Glu-His-Ala] (H-LEHA-OH)
  cell counts versus control dishes: not significantly different
  morphological abnormality of the cells: no morphological abnormality was observed
